Measurements taken from patent US10023864B2, “Methods of treating a metabolic syndrome by modulating heat shock protein (HSP) 90-beta” (Berg LLC, priority 2014, dated 2018).
“Also recorded” adds a separate entry of the source. d = 2'-deoxy (DNA); m = 2'-O-methyl

What was measured:
[1] = test system: HSP90α and HSP90β; details: HSP90α vs HSP90β; cited from earlier work
[2] = test system: DIO mice; test: Heat production in DIO mice; type: in vivo, mouse; details: eight weeks treatment
Experimental: The CLAMS (Columbus Instruments, Columbus, Ohio, USA) metabolic monitoring cages are used to simultaneously monitor horizontal and vertical activity, feeding and drinking, oxygen consumption, and CO2 production. ASO injected and control mice are individually placed in CLAMS cages and monitored over a 4-day period after acclimation to the cages for 1-2 days. The various parameters are recorded in both fasted and fed conditions. Food and water consumption are measured directly as accumulated data. Hourly files display all measurements for each parameter: volume of oxygen consumed, ml/kg per h (VO2), volume of carbon dioxide produced, ml/kg per h (VCO2), respiratory exchange ratio, heat (kcal/h), accumulated food (g), accumulated drink (g), XY total activity (all horizontal beam breaks in counts), XY ambulatory activity (minimum three different, consecutive horizontal beam breaks in counts), and Z activity (all vertical beam breaks in counts). The data are recorded during the 30-s sampling period. The CLAMS data are analyzed by normalizing with lean body mass.

[3] = test system: human Hsp90AB1 protein; test: Knockdown of Hsp90AB1 protein in HSMM by Western blotting; type: cell-based; details: Western blot, normalized to actin, vs NC1
Experimental: ASO1-ASO6 were tested for their ability to knock down human Hsp90AB1 levels in HSMM myotubes. The effectiveness of oligonucleotides ASO1 (A1), ASO2 (A2) ASO3 (A3) ASO4 (A4) ASO5 (A5) and ASO6 (A6) in knocking down the expression of HSP90AB1 protein is shown by Western blotting in FIGS. 19A and 19B. The oligonucleotide NC1 was used as a negative control. HSP90Ab1 protein levels were normalized to the levels of actin.
(§1) The ASO oligonucleotides ASO5, ASO13 and ASO18 were tested for their ability to reduce expression of human Hsp90AB1 protein in human skeletal muscle myotubes (HSMM) and C2C12 mouse myoblasts by Western blotting. ASO5 was derived from the mouse HSP90ab1 gene, while ASO13 and ASO18 were directed to the human HSP90ab1 gene. The oligonucleotide NC1 was used as a negative control. HSP90AB1protein levels were normalized to the levels of actin.

[4] = test system: Hsp90AB1 protein in C2C12 mouse myoblasts; test: Hsp90AB1 protein expression in C2C12 mouse myoblasts by Western blotting; type: cell-based; details: Western blot, normalized to actin, vs NC1
Experimental: as §1

[5] = test system: HSMM myotubes; test: Insulin signaling experiments in HSMM myotubes (western blot of phosphorylated Akt, ERK, GSK3β); type: cell-based, human
Experimental: Human HSMM myotubes cells that were plated in 12 well plates the previous week were used. The media was aspirated and fresh media with appropriate dilutions of the NC and H3 siRNA for Hsp90 knockdown were added such that the final concentration in the wells of the plate was 100 nM. Minis TKO transfection reagent was used for transfecting the cells. The plate was then incubated at 37° C. overnight.
The media was aspirated and the cells were washed off twice—first with warm PBS and second with 0.1% BSA containing growth media. The cells were then serum starved for 2-3 hours in 0.1% differentiation media containing the appropriate inhibitors at 37° C. followed by insulin stimulation for 5 minutes (0, 10, and 100 nM insulin).
The wells were then washed once with PBS and harvested into 100 μl of RIPA buffer containing protease and phosphatase inhibitors. The plate was placed on ice and, using a cell scraper, the cells were scraped from the plate. The lysates were collected in 1.5 ml Eppendorf tubes and homogenized by using a syringe and needle. The lysates were then centrifuged at 4° C. for 10 mins at 14,000 RPM. The lysates can be stored at −20° C. for future use.
Protein content was estimated by BCA assay and samples were prepared for gel electrophoresis and western blotting as described in subsequent sections. The total volume required to load 10 μg of total protein was calculated.
The samples were loaded onto a bis-tris or a tris-glycine-SDS gel. Proteins were transferred to a PVDF or a nitrocellulose membrane using routine wet or dry transfer methods. The membranes were then blocked for at least an hour using the blocking buffer. The membranes were then cut prior to exposure to the appropriate primary antibodies diluted in blocking buffer for incubation. Primary antibodies to pAKT (p-Akt, S473), pERK(p-Erk, Phospho-p44/42 MAPK (Erk1/2) (Thr202/Tyr204), and pGSK3β (Phospho-GSK-3β (Ser9) were obtained from Cell Signaling Inc.® Other antibodies were also obtained from commercial sources. The membrane was placed in the shaker and incubated in the refrigerator (4° C.) overnight.
Visualization of proteins and quantification of western blots was performed as follows. The membranes were washed thrice using 1×PBS-T (10 minutes each). […]
Each strip of membrane was taken out arranged in a clean flat surface. […] The bands were quantified using the BIORAD® software.
HSMM myotubes were sequentially (1) transfected with 3 different siRNAs targeting HSP90AB1 for 48 hours, (2) serum starved for 3 hours, and (3) subjected to stimulation of different concentrations of insulin (0, 10, 100 nM). Signaling events downstream of insulin stimulation were assessed by western blotting for levels of total and phosphorylated Akt, Erk, and GSK3β. […]

[6] = test system: HSMM myotubes; test: Seahorse bioenergetic profiling of myotubes (OCR); type: cell-based, human
[7] = test system: DIO mice; test: Insulin level in DIO mice; type: in vivo, mouse
Experimental: The mice were divided into four groups: (1) lean (non-diabetic control); (2) diabetic receiving control ASO (NC-ASO); (3) diabetic receiving ASO5; and (4) diabetic receiving ASO6. In various experiments mice were dosed intra-peritoneally with twice per week injection of ASO at […] body weight for 4 or 8 weeks. Skeletal muscles were subjected to quantitative PCR.
Further, the effect of the reduction of Hsp90ab1 protein level on plasma insulin levels was examined.

NVP-HS990
HSP90 isoform preference [1]: inhibit both the HSP90α and HSP90β isoforms

C[C@@H]1C[C@H]2O[C@@H]2/C=C\C=C\C(=O)Cc2c(Cl)c(O)cc(O)c2C(=O)O1 [radicicol]
HSP90 isoform preference [1]: HSP90β is more sensitive

mA*mU*mC*mU*mC*mC*T*T*C*T*C*C*C*G*T*T*C*C*mU*mU*mC*mU*mC*mC (antisense AUCUCCTTCTCCCGTTCCUUCUCC; sugars from the 5' end m6 d12 m6, all phosphorothioate, methylation of C not given here) [ASO2, modified antisense oligonucleotide derived from the mouse HSP90AB1 gene]
heat production [2]: improves | level of HSP90ab1 protein [3]: effective

mA*mC*mU*mU*mC*mC*T*T*G*A*C*C*C*T*C*C*T*C*mU*mC*mC*mU*mC*mC (antisense ACUUCCTTGACCCTCCTCUCCUCC; sugars from the 5' end m6 d12 m6, all phosphorothioate, methylation of C not given here) [ASO3, modified antisense oligonucleotide derived from the mouse HSP90AB1 gene]
level of HSP90ab1 protein [3]: effective

mU*mC*mU*mC*mC*mU*T*C*T*C*C*C*G*T*T*C*C*T*mU*mC*mU*mC*mC*mA (antisense UCUCCUTCTCCCGTTCCTUCUCCA; sugars from the 5' end m6 d12 m6, all phosphorothioate, methylation of C not given here) [ASO1, modified antisense oligonucleotide derived from the mouse HSP90AB1 gene]
heat production [2]: improves | level of HSP90ab1 protein [3]: effective

mC*mU*mC*mU*mU*mC*C*T*C*T*G*C*C*T*C*A*T*C*mA*mU*mC*mA*mC*mU (antisense CUCUUCCTCTGCCTCATCAUCACU; sugars from the 5' end m6 d12 m6, all phosphorothioate, methylation of C not given here) [ASO13, modified ASO designed on homology among mouse, monkey and human HSP90ab1 genes]
Hsp90AB1 protein expression [4]: significantly decreased; also recorded: significantly reduced | level of HSP90ab1 protein [3]: significantly decreased; also recorded: significantly reduced

CCc1cc(-c2n[nH]c(C)c2-c2ccc3c(c2)OCCO3)c(O)cc1O [CCT018159]
effect on insulin signaling and bioenergetics compared with HSP90β knockdown alone [5]: less profound effect | level of pERK ([5]; CCT018159 and insulin): No significant changes; also recorded: no change | level of pGSK3β ([5]; CCT018159 and insulin): No significant changes; also recorded: no change | insulin stimulated phosphorylation of Akt (phospho-AKT) ([5]; CCT018159 then insulin, effect at the higher concentration, 10 uM): increase; also recorded: significantly enhanced | CCCP induced uncoupling response on mitochondrial metabolism ([6]; CCT018159 at 1 μM, 3 μM, and 10 μM (FIG. 10 legend)): did not have a significant effect | uncoupled OCR ([6]; myotubes, CCT018159 1 μM): increased | uncoupled (CCCP induced) OCR ([6]; myotubes, CCT018159, 10 uM induced greater suppression): decreased in a concentration dependent manner | basal OCR ([6]; myotubes, CCT018159 at different concentrations): no observed change

mC*mU*mU*mC*mC*mU*T*G*A*C*C*C*T*C*C*T*C*T*mC*mC*mU*mC*mC*mA (antisense CUUCCUTGACCCTCCTCTCCUCCA; sugars from the 5' end m6 d12 m6, all phosphorothioate, methylation of C not given here) [ASO4, modified antisense oligonucleotide derived from the mouse HSP90AB1 gene]
level of HSP90ab1 protein [3]: effective

mA*mU*mG*mC*mC*mC*T*G*A*A*T*T*C*C*A*A*C*T*mG*mA*mC*mC*mU*mU (antisense AUGCCCTGAATTCCAACTGACCUU; sugars from the 5' end m6 d12 m6, all phosphorothioate, methylation of C not given here) [ASO18, modified ASO designed on homology among mouse, monkey and human HSP90ab1 genes]
Hsp90AB1 protein expression [4]: significantly decreased; also recorded: significantly reduced | level of HSP90ab1 protein [3]: significantly decreased; also recorded: significantly reduced

mC*mC*mA*mC*mU*mU*C*C*T*T*G*A*C*C*C*T*C*C*mU*mC*mU*mC*mC*mU (antisense CCACUUCCTTGACCCTCCUCUCCU; sugars from the 5' end m6 d12 m6, all phosphorothioate, methylation of C not given here) [ASO5, modified antisense oligonucleotide derived from the mouse HSP90AB1 gene]
fed insulin levels [7]: significant reduction | Hsp90AB1 protein expression [4]: did not significantly reduce

O=C(O)/C=C/c1nn(Cc2ccc(Cl)cc2Cl)c2cc(C(F)(F)F)ccc12 [gamendazole]
HSP90 isoform preference [1]: specific for HSP90β
